Assay results from ChEMBL document CHEMBL1158976, “Efficient Isolation of Glycosidase Inhibitory Stilbene Glycosides from Rheum palmatum” (J Nat Prod, 1991).
Converted amounts (≈) assume the structure as drawn. The source made the active and inactive calls. The calls are words filed in the database; no cut-off is given here.

What was measured:
Biomphalaria glabrata = experiment: Molluscicidal activity against Biomphalaria glabrata at 200 ppm; type: functional, organism-based
[1] = Inhibition of yeast alpha-glucosidase; design: species or system Saccharomyces cerevisiae

IC50 [1] [µg/mL]	SMILES	Activity (Biomphalaria glabrata)
280 (≈ 692 µM)	COc1ccc(/C=C/c2cc(O)cc(O[C@@H]3O[C@H](CO)[C@@H](O)[C@H](O)[C@H]3O)c2)cc1	inactive
600 (≈ 1430 µM)	COc1ccc(/C=C/c2cc(O)cc(O[C@@H]3O[C@H](CO)[C@@H](O)[C@H](O)[C@H]3O)c2)cc1O [RHAPONTIN]	inactive
